Tests used:
Type in all cases: in vivo
[1] = test system: cotton aphids (Aphis gossypii); assay: Test method 1: foliar spray on cucumber seedlings inoculated with cotton aphids (formulation per Formulation Example 1); details: 120 h, 500 ppm, sprayed 10 mL/seedling one day after inoculation, surviving insects examined after 5 days, 25°C, read-out: control value
[2] = test system: common cutworm (Spodoptera litura); assay: Test method 3: sprayed cabbage foliage cut out, second instar larvae of common cutworm released; details: foliar, 120 h, sprayed 20 mL/seedling, five second instar larvae, after 5 days, 25°C
Protocol: (§1) A test compound is formed into a formulation according to the method described in Formulation Example 1, and water containing 0.03% by volume of Shindain (registered trademark) is added thereto to prepare a diluted solution containing the test compound at a predetermined concentration.
(§2) A cabbage (Brassicae oleracea) seedling (2 to 3 true leaf stage) planted in a container is sprayed with the diluted solution at a rate of 20 mL/seedling. Thereafter, the foliage portion of the seedling is cut out and placed in a container on which filter paper is laid. Thereto are released five second instar larvae of common cutworm (Spodoptera litura). After 5 days, the number of surviving insects is counted, and the mortality is determined from the following equation. [formula]

[3] = test system: diamondback moth (Plutella xylostella); assay: Test method 4: sprayed cabbage foliage cut out, second instar larvae of diamondback moth released; details: foliar, 120 h, sprayed 20 mL/seedling, five second instar larvae, after 5 days, 25°C
Protocol: as §1
as §2, with “diamondback moth (Plutella xylostella).” for “common cutworm (Spodoptera litura).”

[4] = test system: Musca domestica; assay: Test method 8: container inner surface coated with test compound, Musca domestica; details: 24 h, 40 mg/m^2 (800 ppm acetone solution), five adult female, 1 days, 25°C
Protocol: An acetone solution prepared such that the amount of the test compound is 800 ppm is poured into a container having an internal volume of 20 mL, and the inner surface of the container is uniformly coated such that the amount of the test compound is 40 mg/m^2, and then dried.
Five adult female Musca domestica are placed in the container, and the lid is closed. After a lapse of a predetermined time, the state of Musca domestica is examined, and the mortality is determined. The mortality is calculated by the following equation. [formula]

[5] = test system: diamondback moth (Plutella xylostella); assay: Test method 10: sprayed cabbage seedling, third instar larvae of diamondback moth released; details: 144 h, sprayed 20 mL/seedling, 10 third instar larvae, after 6 days, 25°C
Protocol: (§3) A test compound is formed into a formulation according to the method described in Formulation Example 5, and water containing 0.03% by volume of Shindain (registered trademark) is added thereto to prepare a diluted solution containing the test compound at a predetermined concentration.
(§4) A cabbage (Brassicae oleracea) seedling (3 to 4 true leaf stage) planted in a container is sprayed with the diluted solution at a rate of 20 mL/seedling. Thereafter, 10 third instar larvae of diamondback moth (Plutella xylostella) are released. After 6 days, the number of surviving insects is counted, and the mortality is determined from the following equation. [formula]

[6] = test system: cotton aphids (Aphis gossypii); assay: Test method 11: foliar spray on cucumber seedlings inoculated with cotton aphids (formulation per Formulation Example 5); details: 120 h, sprayed 10 mL/seedling one day after inoculation, after 5 days, 25°C, read-out: control value
[7] = test system: Culex pipiens pallens; assay: Test method 12: last-instar larvae of Culex pipiens pallens released into diluted solution; details: 24 h, 30 last-instar larvae, one day later, 25°C
Protocol: The test compound is formulated according to the method described in Formulation Example 1, and water is added thereto to prepare a diluted solution containing the test compound at a predetermined concentration. 30 last-instar larvae of Culex pipiens pallens are released into the diluted solution, and the state of the larvae of Culex pipiens is examined one day later to determine the Mortality. The mortality is calculated by the following equation. [formula]

[8] = test system: Aphis gossypii; assay: Test method 2: soil irrigation of cucumber seedlings, later inoculated with Aphis gossypii; details: 144 h, irrigated 5 mL/seedling, inoculated after 7 days, surviving insects examined after 6 days, 25°C, read-out: control value
Protocol: The test compound is formulated according to the method described in Formulation Example 5, and water is added thereto to prepare a diluted solution containing the test compound at a predetermined concentration. A cucumber (Cucumis sativus) seedling (second true leaf stage) planted in a container is irrigated with the diluted solution at a rate of 5 mL/seedling. After 7 days, the leaf surface of this seedling is inoculated with about 30 Aphis gossypii (whole stage). After 6 days, the number of surviving insects is examined, and the control value is determined by the following formula. [formula] • Characters in the formula represent the following meanings. • Cb: number of test insects in a non-treated section • Cai: number of surviving insects in a non-treated section at the time of investigation • Tb: number of test insects in a treated section • Tai: number of surviving insects in a treated section at the time of investigation Herein, the non-treated section means a section that is subjected to the same operation as that of the treated section except that the test compound is not used.

[9] = test system: Western corn rootworm (Diabrotica virgifera virgifera); assay: whole plant or invertebrate; details: 120 h
Protocol: Each 1 mg of the test compound is dissolved in 50 µL of a mixed solution of polyoxyethylene sorbitan monococoate and acetone (5 : 95 (volume ratio)). Water containing 0.03% by volume of Shindain (registered trademark) is added thereto to prepare a diluted solution containing the test compound at a predetermined concentration.
Young seedlings of maize (Zea mays) are immersed in the diluted solution for 30 seconds. Thereafter, the two […] are placed in a petri dish (90 mm diameter), and thereto are released 10 second instar larvae of Western corn rootworm (Diabrotica virgifera virgifera). After 5 days, the number of dead insects is counted, and the mortality is determined from the following equation. [formula]

[10] = test system: Haemaphysalis longicornis; assay: Test method 7: container inner surface coated with test compound, Haemaphysalis longicornis nymphs; details: 48 h, 100 mg/m^2 (2000 ppm acetone solution), five nymphs, 2 days, 25°C
Protocol: An acetone solution prepared such that the amount of the test compound is 2000 ppm is poured into a container having an internal volume of 20 mL, and the inner surface of the container is uniformly coated such that the amount of the test compound is 100 mg/m^2, and then dried.
Five nymphs of Haemaphysalis longicornis are placed in the container, and the lid is closed. After a lapse of a predetermined time, the state of Haemaphysalis longicornis is examined to determine the mortality. The mortality is calculated by the following equation. [formula]

[11] = test system: Blattella germanica; assay: Test method 6: container inner surface coated with test compound, Blattella germanica; details: 72 h
Protocol: An acetone solution prepared such that the amount of the test compound is 800 ppm is poured into a container having an internal volume of 50 mL, and the inner surface of the container is uniformly coated such that the amount of the test compound is 40 mg/m^2, and then dried.
Five male imagoes of Blattella germanica are placed in the container, and the lid is closed. After a lapse of a predetermined time, the state of Blattella germanica is examined, and the mortality is determined. The mortality is calculated by the following equation. [formula]

[12] = test system: common cutworm (Spodoptera litura); assay: Test method 9: sprayed cabbage seedling, third instar larvae of common cutworm released; details: 144 h
Protocol: as §3
as §4, with “common cutworm (Spodoptera litura)” for “diamondback moth (Plutella xylostella)”

Row | SMILES | mortality at 500 ppm [1] | mortality at 500 ppm [2] | mortality at 500 ppm [3] | mortality at 40 mg/m2, 40 mg/m2 [4] | mortality at 200 ppm [5] | mortality at 50 ppm [6] | mortality at 200 ppm [6] | mortality at 3.5 ppm [7] | mortality at 1000 ppm [8] | mortality at 200 ppm [9] | mortality at 50 ppm [5] | mortality at 100 mg/m2, 100 mg/m2 [10] | mortality at 40 mg/m2, 40 mg/m2 [11] | mortality at 200 ppm [12]
1 | CCSc1c(N(C)C(=O)c2ccc(C(F)(F)F)s2)nc2ccc(I)cn12 [compound 6] | ≥ 90% | ≥ 80% | ≥ 80% | ≥ 80% | ≥ 80% | ≥ 90% | ≥ 90% | > 90% | – | – | – | – | – | –
2 | CCS(=O)(=O)c1c(N(C)C(=O)c2cc(C(F)(F)F)n(C)n2)nc2ccc(I)cn12 [compound 52] | ≥ 90% | – | ≥ 80% | ≥ 80% | ≥ 80% | ≥ 90% | ≥ 90% | > 90% | ≥ 90% | ≥ 80% | ≥ 80% | – | – | –
3 | CC[S+]([O-])c1c(N(C)C(=O)c2cnc(C(F)(F)F)s2)nc2cc(I)ccn12 (stereo not shown) [compound 45] | ≥ 90% | – | – | – | – | ≥ 90% | ≥ 90% | > 90% | – | – | – | ≥ 80% | – | –
4 | CCS(=O)(=O)c1c(N(C)C(=O)c2cnc(C(F)(F)F)s2)nc2ccc(I)cn12 [compound 40] | ≥ 90% | ≥ 80% | ≥ 80% | – | ≥ 80% | ≥ 90% | ≥ 90% | > 90% | ≥ 90% | – | ≥ 80% | – | – | –
5 | CCS(=O)(=O)c1c(N(C)C(=O)c2cnc(C(F)(F)F)s2)nc2cc(Br)ccn12 [compound 48] | ≥ 90% | ≥ 80% | ≥ 80% | – | ≥ 80% | ≥ 90% | ≥ 90% | > 90% | – | – | – | – | – | –
6 | CCSc1c(N(C)C(=O)c2cc(C(F)(F)F)n(C)n2)nc2ccc(I)cn12 [compound 16] | ≥ 90% | ≥ 80% | ≥ 80% | ≥ 80% | – | – | ≥ 90% | > 90% | ≥ 90% | – | – | – | – | –
7 | CCSc1c(N(C)C(=O)c2cnn(C(F)(F)F)c2)nc2ccc(I)cn12 [compound 23] | ≥ 90% | – | ≥ 80% | – | – | – | ≥ 90% | > 90% | – | – | – | – | ≥ 80% | ≥ 80%

Source: patent EP4596547A1, “HETEROCYCLIC COMPOUND AND HARMFUL ARTHROPOD-CONTROLLING COMPOSITION CONTAINING SAME” (priority 2022, dated 2024)
